These results are taken from US12091393B2, “Small molecule vaccine adjuvant for enhancing or prolonging immune response” (The Regents of the University of California, priority 2018, dated 2024).

SMILES strings stand for the structures. Like-named read-outs stand apart in the source and are kept apart here.

One data set has as its system NF-κB. Nature of the data set: Measurement of NF-κB activation using THP1-Blue NF-κB cells (SEAP). Format: cell-based. Conditions: for activity at 5 µM: 20 h, two point normalized, compound 1 as 200%; for NF-κB activity (SAR discussion, in words): evaluated in both the presence and absence of LPS.
The subject of a further data set is THP-1 cells. Kind of data set: Cell viability assay (MTT). Format: cell-based. Conditions: compound 5 μM alone, 18 h, normalized to DMSO as 100%. On the procedure:
THP-1 cells were plated in 96-well plates (10^5 cells/well) in 100 μL RPMI supplemented with 10% FBS, 100 U/mL penicillin and 100 μg/ml streptomycin. Compounds were dissolved in DMSO at 1 mM stock solution and were further diluted to 10 μM in the assay medium. 100 μL of this solution was added to the cells to obtain a final compound concentration of 5 μM ([…]). After 18 h incubation, a solution of MTT in assay media (0.5 mg/mL) was added to each well and further incubated for 4 to 6 h, followed by addition of cell lysis buffer (15% w/v SDS and 0.12% v/v 12N HCl aqueous solution), incubated overnight, and then absorbance measured at 570 nm using 650 nm as reference using Tecan Infinite M200 plate reader.

Setting [1] is: compound 5 μM + LPS, LPS (10 ng/mL) as 100%, read-out: NF-κB SEAP Compound + LPS % Activation.
Setting [2] is: compound 5 μM alone, LPS or DMSO as 100%, read-out: NF-κB SEAP Compound alone % Activation.

Take `Cc1ccc(C)c(Cc2csc(NC(=O)c3ccc(S(=O)(=O)N4CCCCC4)cc3)n2)c1` [Compound 12f, N-(4-(2,5-dimethylbenzyl)thiazol-2-yl)-4-(piperidin-1-ylsulfonyl)benzamide]: the figures for the activity at 5 µM with NF-κB (setting [1]) and in the data set on NF-κB (setting [2]) were 108% and 102%, respectively. Moreover, the “NF-κB activity (SAR discussion, in words)” value (“NF-κB activity” for short) in the data set on NF-κB is “inactive”. Also, the “MTT Compound alone % Viability” value with THP-1 cells amounted to 97.02%.

For `CC(C)(C)c1csc(NC(=O)c2ccc(S(=O)(=O)N3CCCCC3)cc2)n1` [Compound 12k, N-(4-(tert-butyl)thiazol-2-yl)-4-(piperidin-1-ylsulfonyl)benzamide], the results for the activity at 5 µM in the data set with NF-κB (setting [1]) and in the data set on NF-κB (setting [2]) were 94.1% and 99.5%, respectively. For the same compound, the “NF-κB activity” value in the data set on NF-κB was “None of these molecules had any NF-κB activity”. Besides, in the data set on THP-1 cells, the “MTT Compound alone % Viability” value is 127.74%.

With `Cc1ccc(C)c(-c2csc(NC(=O)c3ccc(S(=O)(=O)N4CCCCC4)s3)n2)c1` [Compound 46c, N-(4-(2,5-dimethylphenyl)thiazol-2-yl)-5-(piperidin-1-ylsulfonyl)thiophene-2-carboxamide], the activity at 5 µM with NF-κB (setting [1]) was 97.2%; in the data set with NF-κB (setting [2]), 106%. The “NF-κB activity” value in the data set with NF-κB is “none of these modifications at site D or E were tolerated”.

For `CCCC#Cc1sc(NC(=O)c2ccc(S(=O)(=O)N3CCC(CCC)CC3)cc2)nc1-c1cc(C)ccc1Br` [Compound 65, N-(4-(2-bromo-5-methylphenyl)-5-(pent-1-yn-1-yl)thiazol-2-yl)-4-((4-propylpiperidin-1-yl)sulfonyl)benzamide], in the data set with NF-κB, the “NF-κB activity” value is “very potent and showed better potency than compound 1”.

Turning to `CCOc1sc(NC(=O)c2ccc(S(=O)(=O)N3CCCCC3)cc2)nc1-c1cc(C)ccc1C` [Compound 18l, N-(4-(2,5-dimethylphenyl)-5-ethoxythiazol-2-yl)-4-(piperidin-1-ylsulfonyl)benzamide], the activity at 5 µM in the data set with NF-κB (setting [1]) came out at 111%; in the data set with NF-κB (setting [2]) it was 104%. Moreover, the “NF-κB activity” value with NF-κB is “partial activity”.

Turning to `Cc1ccc(C)c(-c2nc(NC(=O)c3ccc(S(=O)(=O)N4CCCCC4)cc3)sc2-c2ccccc2)c1` [Compound 18i, N-(4-(2,5-dimethylphenyl)-5-phenylthiazol-2-yl)-4-(piperidin-1-ylsulfonyl)benzamide], the values for the activity at 5 µM in the data set on NF-κB (setting [1]) and in the data set on NF-κB (setting [2]) were 98.4% and 98.3%, respectively. For the same compound, the “NF-κB activity” value with NF-κB is “completely inactive”.

Take `C#CCN(C(=O)c1ccc(S(=O)(=O)N2CCCCC2)cc1)c1nc(-c2cc(C)ccc2C)cs1` [Compound 34d, N-(4-(2,5-dimethylphenyl)thiazol-2-yl)-4-(piperidin-1-ylsulfonyl)-N-(prop-2-yn-1-yl)benzamide]: the figures for the activity at 5 µM in the data set with NF-κB (setting [1]) and with NF-κB (setting [2]) were 97.7% and 101%, respectively. In addition, in the data set with NF-κB, the “NF-κB activity” value is “inactive”.

As to `Cc1ccc(C)c(-c2cnc(NC(=O)c3ccc(S(=O)(=O)N4CCCCC4)cc3)s2)c1` [Compound 18e, N-(5-(2,5-dimethylphenyl)thiazol-2-yl)-4-(piperidin-1-ylsulfonyl)benzamide], the activity at 5 µM with NF-κB (setting [1]) was 95.1%; with NF-κB (setting [2]) it was 98.3%. Also, the “NF-κB activity” value with NF-κB is recorded as “none of these molecules that replaced the thiazole functionality were active”.

Consider `CCc1ccc(C)c(-c2csc(NC(=O)c3ccc(S(=O)(=O)N4CCCCC4)cc3)n2)c1` [Compound 12u, N-(4-(5-ethyl-2-methylphenyl)thiazol-2-yl)-4-(piperidin-1-ylsulfonyl)benzamide], for which the activity at 5 µM in the data set with NF-κB (setting [1]) stood at 200%; with NF-κB (setting [2]), 216%. The “NF-κB activity” value in the data set with NF-κB is reported as “resulted in activity”.
